{"source": "ChEMBL document CHEMBL4834431", "about": "“Design of Dimeric Bile Acid Derivatives as Potent and Selective Human NTCP Inhibitors” (J Med Chem, 2021)", "key": {"[1]": {"biological_target": "T1, Hepatic sodium/bile acid cotransporter (Homo sapiens, UniProt Q14973)", "T1 sequence (Q14973 whole entry)": "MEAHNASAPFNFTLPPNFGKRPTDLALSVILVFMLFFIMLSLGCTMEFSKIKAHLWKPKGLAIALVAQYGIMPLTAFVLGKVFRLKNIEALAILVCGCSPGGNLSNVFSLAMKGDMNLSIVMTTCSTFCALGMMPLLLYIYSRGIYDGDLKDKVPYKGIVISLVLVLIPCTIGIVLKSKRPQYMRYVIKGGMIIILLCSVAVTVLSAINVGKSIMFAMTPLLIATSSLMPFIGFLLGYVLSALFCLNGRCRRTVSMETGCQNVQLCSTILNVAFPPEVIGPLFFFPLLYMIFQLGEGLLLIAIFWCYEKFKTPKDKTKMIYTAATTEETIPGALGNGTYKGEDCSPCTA", "assay": "Inhibition of human NTCP-mediated [3H]-Estrone sulfate uptake expressed in human HepG2 cells at 2 uM", "assay_type": "cell-based", "conditions": "hepg2, 2 µM"}, "[2]": {"system": "Hepatitis B virus", "assay": "Antiviral activity against HBV infected in human HepG2-NTCP cells assessed as reduction in intracellular HBV RNA level at 1 uM by qPCR analysis", "assay_type": "functional, organism-based"}, "[3]": {"biological_target": "T1, Hepatic sodium/bile acid cotransporter", "assay": "Inhibition of human NTCP-mediated NQL-065 uptake expressed in human HepG2 cells incubated for 30 mins", "assay_type": "cell-based", "conditions": "hepg2, 0.5 h"}, "[4]": {"biological_target": "T1, Hepatic sodium/bile acid cotransporter", "assay": "Inhibition of human NTCP-mediated NQL-064 uptake expressed in human HepG2 cells incubated for 30 mins", "assay_type": "cell-based", "conditions": "hepg2, 0.5 h"}, "[5]": {"system": "Hepatitis B virus", "assay": "Antiviral activity against HBV infected in human HepG2-NTCP cells assessed as reduction in HBeAg secretion at 1 uM pre-infected with virus followed by compound addition by ELISA", "assay_type": "functional, organism-based"}, "[6]": {"biological_target": "T2, Solute carrier organic anion transporter family member 1B1 (Homo sapiens, UniProt Q9Y6L6)", "T2 sequence (Q9Y6L6 whole entry)": "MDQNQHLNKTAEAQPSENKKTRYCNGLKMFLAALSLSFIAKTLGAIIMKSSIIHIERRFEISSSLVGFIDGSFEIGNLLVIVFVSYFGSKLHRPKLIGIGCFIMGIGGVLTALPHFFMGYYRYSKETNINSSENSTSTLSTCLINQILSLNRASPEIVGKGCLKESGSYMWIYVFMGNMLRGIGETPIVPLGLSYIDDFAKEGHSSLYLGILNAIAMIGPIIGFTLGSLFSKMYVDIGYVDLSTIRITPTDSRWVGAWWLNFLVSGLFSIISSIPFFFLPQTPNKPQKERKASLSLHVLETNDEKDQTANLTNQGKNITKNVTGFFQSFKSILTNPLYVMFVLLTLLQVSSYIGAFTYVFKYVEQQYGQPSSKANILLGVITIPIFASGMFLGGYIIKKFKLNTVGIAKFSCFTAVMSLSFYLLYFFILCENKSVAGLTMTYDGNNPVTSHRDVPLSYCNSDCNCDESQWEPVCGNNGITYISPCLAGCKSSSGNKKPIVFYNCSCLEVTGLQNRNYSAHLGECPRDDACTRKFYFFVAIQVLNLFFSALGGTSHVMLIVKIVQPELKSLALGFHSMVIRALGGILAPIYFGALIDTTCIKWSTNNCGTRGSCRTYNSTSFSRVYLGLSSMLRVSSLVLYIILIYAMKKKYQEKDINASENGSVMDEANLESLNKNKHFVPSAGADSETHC", "assay": "Inhibition of human OATP1B1-mediated [3H]-Estrone sulfate uptake expressed in human HepG2 cells at 2 uM", "assay_type": "cell-based", "conditions": "hepg2, 2 µM"}, "[7]": {"system": "Hepatitis B virus", "assay": "Antiviral activity against HBV infected in human HepG2-NTCP cells assessed as reduction in HBeAg secretion incubated for 24 hrs followed replacement with fresh medium and measured at day 5 post infection by ELISA", "assay_type": "functional, organism-based"}, "[8]": {"system": "Hepatitis B virus", "assay": "Antiviral activity against HBV infected in human HepG2-NTCP cells assessed as reduction in intracellular accumulation of HBsAg at 1 uM by immunostaining based fluorescence microscopic analysis", "assay_type": "functional, organism-based"}, "[9]": {"system": "Hepatitis delta virus", "assay": "Antiviral activity against HDV infected in human HepG2-NTCP cells assessed as reduction in intranuclear accumulation of HDV delta antigen at 5 uM incubated for 24 hrs followed by replacement with fresh medium and measured at day 5 post infection by DAPI staining based confocal microscopic analysis (reference value: 12.1 %)", "assay_type": "functional", "parameters": "scale not given: the % may be the effect or the level left"}, "[10]": {"biological_target": "T1, Hepatic sodium/bile acid cotransporter", "assay": "Inhibition of FITC-labeled HBV Pre-S1 polypeptide binding to human NTCP expressed in HepG2 cells after 2 to 3 hrs by confocal microscopic analysis", "assay_type": "cell-based", "conditions": "time 2-3 hrs"}, "[11]": {"system": "HepG2", "assay": "Effect on NTCP surface expression in human HepG2-NTCP cells assessed as reduction in NTCP surface expression level after 2 hrs by immunostaining based assay", "assay_type": "functional, cell-based"}, "[12]": {"system": "Hepatitis B virus", "assay": "Antiviral activity against HBV infected in human HepG2-NTCP cells assessed as reduction in HBeAg secretion at 111 to 1000 nM incubated for 24 hrs followed by replacement with fresh medium and measured at day 5 post infection by ELISA", "assay_type": "functional, organism-based", "conditions": "dose 111-1000 nM"}, "[13]": {"system": "Hepatitis B virus", "assay": "Antiviral activity against HBV infected in human HepG2-NTCP cells assessed as reduction in HBeAg secretion at 1 uM preincubated with compound followed by viral infection by ELISA", "assay_type": "functional, organism-based"}, "[14]": {"system": "Hepatitis B virus", "assay": "Antiviral activity against HBV infected in human HepG2-NTCP cells assessed as reduction in HBeAg secretion at 1 uM compound added along with viral infection by ELISA", "assay_type": "functional, organism-based"}, "[15]": {"system": "Hepatocyte", "assay": "Cytotoxicity against primary tupaia hepatocytes expressing NTCP assessed as reduction in cell viability at 100 uM after 48 hrs by Cell-Titer Glo assay", "assay_type": "cell-based", "conditions": "scandentia"}, "[16]": {"biological_target": "T3, Ileal sodium/bile acid cotransporter (Homo sapiens, UniProt Q12908)", "T3 sequence (Q12908 whole entry)": "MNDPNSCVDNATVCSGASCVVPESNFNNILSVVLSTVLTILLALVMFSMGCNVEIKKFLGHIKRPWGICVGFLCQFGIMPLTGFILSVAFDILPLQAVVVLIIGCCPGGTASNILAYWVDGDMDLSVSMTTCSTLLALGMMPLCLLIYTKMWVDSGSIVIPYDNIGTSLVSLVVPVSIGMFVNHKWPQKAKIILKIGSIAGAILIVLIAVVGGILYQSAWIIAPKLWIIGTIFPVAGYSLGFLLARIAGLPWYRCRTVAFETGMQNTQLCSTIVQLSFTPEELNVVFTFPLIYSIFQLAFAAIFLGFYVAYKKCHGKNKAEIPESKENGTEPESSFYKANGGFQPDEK", "assay": "Inhibition of human ASBT-mediated [3H]-TCA uptake expressed in human HepG2 cells at 2 uM", "assay_type": "cell-based", "conditions": "hepg2, 2 µM"}, "[17]": {"system": "Hepatitis B virus", "assay": "Antiviral activity against HBV infected in human HepG2-NTCP cells assessed as reduction in HBeAg secretion preincubated for 2 hrs followed by viral infection by ELISA", "assay_type": "functional, organism-based"}, "[18]": {"system": "HepG2", "assay": "Cytotoxicity against human HepG2 cells expressing NTCP assessed as reduction in cell viability at 10 uM after 48 hrs by alamar blue assay", "assay_type": "cell-based", "conditions": "hepg2, 48 h"}, "[19]": {"biological_target": "T1, Hepatic sodium/bile acid cotransporter", "assay": "Inhibition of human NTCP-mediated [3H]-TCA uptake expressed in human HepG2 cells at 2 uM", "assay_type": "cell-based", "conditions": "hepg2, 2 µM"}, "[20]": {"system": "Hepatitis B virus", "assay": "Antiviral activity against HBV infected in human HepG2-NTCP cells assessed as reduction in intracellular accumulation of HBcAg at 1 uM by immunostaining based fluorescence microscopic analysis", "assay_type": "functional, organism-based"}, "[21]": {"assay": "Stability in mouse liver microsomes assessed as half life at 1 uM preincubated for 5 mins followed by NADPH addition and measured upto 60 mins by LC-MS analysis", "assay_type": "ADME, Microsome", "conditions": "time 65 min"}, "[22]": {"assay": "Stability in mouse liver microsomes assessed as intrinsic clearance at 1 uM preincubated for 5 mins followed by NADPH addition and measured upto 60 mins by LC-MS analysis", "assay_type": "ADME, Microsome", "conditions": "time 65 min, read-out: CLH"}, "[23]": {"biological_target": "T1, Hepatic sodium/bile acid cotransporter", "assay": "Inhibition of human NTCP-mediated [3H]-TCA uptake expressed in human HepG2 cells pretreated for 2 hrs followed by [3H]-TCA addition in absence of FBS", "assay_type": "cell-based"}}, "note": "Active and inactive are the calls of the source. The calls are words filed in the database; no cut-off is given here."}
{"smiles": "C[C@H](CCC(=O)NCCS(=O)(=O)O)[C@H]1CC[C@H]2[C@@H]3[C@@H](O)C[C@@H]4C[C@H](OC(=O)CCCC(=O)O[C@@H]5CC[C@@]6(C)[C@@H](C5)C[C@H](O)[C@@H]5[C@@H]6CC[C@]6(C)[C@@H]([C@H](C)CCC(=O)NCCS(=O)(=O)O)CC[C@@H]56)CC[C@]4(C)[C@H]3CC[C@]12C", "values": [{"measurement": "inhibition (INH)", "setting": "[1]", "result": "Active"}, {"measurement": "Activity", "setting": "[2]", "result": "Active"}, {"measurement": "inhibition (INH)", "setting": "[3]", "result": "Active"}, {"measurement": "inhibition (INH)", "setting": "[4]", "result": "Active"}, {"measurement": "Activity", "setting": "[5]", "result": "inactive"}, {"measurement": "inhibition (INH)", "setting": "[6]", "result": "Not Active"}, {"measurement": "IC50", "setting": "[7]", "result": 65, "unit": "nM"}, {"measurement": "Activity", "setting": "[8]", "result": "Active"}, {"measurement": "Activity", "setting": "[9]", "result": 2.8, "unit": "%"}, {"measurement": "inhibition (INH)", "setting": "[10]", "result": "Active"}, {"measurement": "Activity", "setting": "[11]", "result": "inactive"}, {"measurement": "Activity", "setting": "[12]", "result": "Active"}, {"measurement": "Activity", "setting": "[13]", "result": "Active"}, {"measurement": "Activity", "setting": "[14]", "result": "Active"}, {"measurement": "Activity", "setting": "[15]", "result": "Non-Toxic"}, {"measurement": "inhibition (INH)", "setting": "[16]", "result": "Not Active"}, {"measurement": "Activity", "setting": "[17]", "result": "inactive"}, {"measurement": "Activity", "setting": "[18]", "result": "Non-Toxic"}, {"measurement": "inhibition (INH)", "setting": "[19]", "result": "Active"}, {"measurement": "Activity", "setting": "[20]", "result": "Active"}]}
{"smiles": "C[C@H](CCC(=O)N[C@@H]1CC[C@@]2(C)[C@@H](C1)C[C@H](O)[C@@H]1[C@@H]2CC[C@]2(C)[C@@H]([C@H](C)CCC(=O)NCCS(=O)(=O)O)CC[C@@H]12)[C@H]1CC[C@H]2[C@@H]3[C@@H](O)C[C@@H]4C[C@H](O)CC[C@]4(C)[C@H]3CC[C@]12C", "values": [{"measurement": "IC50", "setting": "[7]", "result": 5, "unit": "nM"}, {"measurement": "half-life at 1 µM", "setting": "[21]", "result": 42, "unit": "s"}, {"measurement": "microsomal CLint at 1 µM", "setting": "[22]", "result": 994, "unit": "µL/min/mg"}, {"measurement": "IC50", "setting": "[23]", "result": 0.3, "unit": "nM"}]}
{"smiles": "C[C@@H]1CCC(=O)NCCNC(=O)CC[C@@H](C)[C@H]2CC[C@H]3[C@@H]4[C@@H](O)C[C@@H]5C[C@@H](CC[C@]5(C)[C@H]4CC[C@]23C)n2cc(nn2)CO[C@@H]2CC[C@@]3(C)[C@@H](C2)C[C@H](O)[C@@H]2[C@@H]3CC[C@]3(C)[C@@H]1CC[C@@H]23", "values": [{"measurement": "IC50", "setting": "[7]", "result": 81, "unit": "nM"}, {"measurement": "IC50", "setting": "[23]", "result": 37.5, "unit": "nM"}]}
